# Results published in patent publication US12714698B2, “Compositions and methods for treating or preventing dermal disorders” (Drexel University, priority 2015, dated 2026).
# Columns and labels:
# [1] = system: human cardiac fibroblasts; assay: Immunoblot of electron transport chain and mitochondrial clearance proteins; type: cell-based
# Experimental: (§1) Cell culture experiments utilizing NRTIs were of the following design. Cultures of either human lung or cardiac fibroblasts were cultivated according to standard culture protocols for these cells (Cristofalo, et al., Journal of Tissue Culture Methods 1980, 6:117-121). Parallel sets of cultures were maintained in normal growth media or in normal growth media with the addition of 1 nM rapamycin. Cultures were maintained with 1 nM rapamycin (Enzo Biologicals) for two weeks before exposure to NRTIs. Cell cultures were exposed to NRTIs at indicated concentrations in individual experiments (generally 10-20 μg/ml) for 7 days, with a change of media and fresh NRTIs at day 4. Mitochondrial measurements, bioanalyzer measurements, immunoblotting for protein expression and phosphorylation status, and assays for senescence were performed at the end of this 7-day period.
# Cell protein extracts were prepared by extracting with radioimmunoprecipitation assay (RIPA) buffer containing a protease inhibitor cocktail (Sigma-Aldrich) and phosphatase inhibitors, NaF and sodium orthovanadate. Protein concentration was quantified using a bicinchoninic acid (BCA) assay (Pierce Biotechnology). Western blot analysis was performed using 15 to 30 μg of protein extracts that were run on SDS-PAGE and transferred onto nitrocellulose (Biorad) membranes. Blots were incubated with antibodies specific for: beta-actin (Sigma-Aldrich), TFAm, parkin, p16, phospho(S82)HSP27, HSP27 (Santa Cruz Biotechnologies), p53, 21, catalase, MDM2 (EMD Millipore), VDAC, phospho(S235/236)-ribosomal protein S6, ribosomal protein S6, phospho(S166)-MDM2, phospho(5473)-AKT, AKT, beta-tubulin (Cell Signaling), p62 (Enzo Biologicals), IL-6 (NeoBiolab), lamin B1, PINK1, and Mitoprofile Total OXPHOS Cocktail (complex I-NDUFB8 subunit, CII-SDHB subunit, CIIIUQCRC2 subunit, and CIV-mitochondrial COX1 subunit) (Abcam) according to manufacturers' instructions. […] For co-immunoprecipitation, cell protein extracts were prepared in HNTG buffer containing a protease inhibitor cocktail and quantified using BCA assay. […]
# [2] = system: human cardiac fibroblasts; assay: Senescence-associated beta-galactosidase detection; type: cell-based; conditions: rapamycin treated cultures (1 nM)
# Experimental: as §1
# Assessment of SA-β-gal activity was performed by plating cells following respective treatments at low density (0.5×10^4/cm^2) to prevent false positive staining known to occur in high density cultures. […] Following incubation, cells were washed three times with PBS and at least 500 cells were counted for each sample in triplicates. Positive cells (blue cells) were expressed as a percentage of total cells.
# p53 and MDM2 = assay: p53/MDM2 co-immunoprecipitation and p53 forms after proteasome inhibition; type: cell-based, human; conditions: after proteasome inhibitor
# Experimental: FIGS. 11A-11F illustrate status of p53 in human cardiac fibroblast cultures exposed to NRTIs and in rapamycin-treated cultures. FIG. 11A is a bar graph illustrating comet assay results for cells exposed to NRTIs or hydrogen peroxide as a positive control. The white bar represents control data; grey bar represents data from cells exposed to 10 or 20 μg/ml NRTI for 7 days; and the black bar represents data from cells exposed to 200 μM hydrogen peroxide for 2 hours. […] FIG. 11B depicts the results of an immunoprecipitation experiment using antibodies against p53. Cell lysates from control and rapamycin-treated cultures, with or without NRTI exposure for 7 days, were subjected to immunoprecipitation using anti-p53 antibodies followed by immunoblot analysis for MDM2 and subsequently for p53. […] FIG. 11F is a bar graph illustrating relative intensity of cytosolic MDM2 staining as determined by Image J Analysis.
# Cell protein extracts were prepared by extracting with radioimmunoprecipitation assay (RIPA) buffer containing a protease inhibitor cocktail (Sigma-Aldrich) and phosphatase inhibitors, NaF and sodium orthovanadate. Protein concentration was quantified using a bicinchoninic acid (BCA) assay (Pierce Biotechnology). […] For co-immunoprecipitation, cell protein extracts were prepared in HNTG buffer containing a protease inhibitor cocktail and quantified using BCA assay. […]
structure (smiles),measurement,setting,value
CO[C@H]1C[C@@H]2CC[C@@H](C)[C@@](O)(O2)C(=O)C(=O)N2CCCC[C@H]2C(=O)O[C@H]([C@H](C)C[C@@H]2CC[C@@H](O)[C@H](OC)C2)CC(=O)[C@H](C)/C=C(\C)[C@@H](O)[C@@H](OC)C(=O)[C@H](C)C[C@H](C)/C=C/C=C/C=C/1C [rapamycin],"steady state levels of NDUFB8, SDHB, UQCRC2 and mt-CO1",[1]; cells treated with rapamycin vs control,lower
same,ETC protein levels on exposure to NRTIs,[1]; rapamycin-treated cells,not elevated
same,level of p62/SQSTM1,[1]; response to rapamycin,decreased
same,SA-β-gal following exposure to NRTIs,[2],no increase
same,high molecular weight forms of p53,p53 and MDM2,prominent
